In US8252832B2, “Kinesin inhibitors as cancer therapeutics” (Novartis AG, priority 2007, dated 2012):
Read-outs that look alike come from different tables or passages of the source.

Tests used:
Experiment in all cases: CellTiter-Glo, NCI60 panel
Type in all cases: cell-based
BT-474 = conditions: Breast; for GI50: Homo sapiens
Description: (§1) Identification of tumor types that are the most sensitive to the KSP inhibitors of the present invention can be accomplished using an unbiased approach that uses several cell-based assays. The assays chosen were as follows: • CellTiter-Glo®. This is an assay designed to measure ATP concentration in a cell culture, and can be correlated to cell number. Briefly CellTiter-Glo® (Promega Corporation) is a homogeneous method using the single CellTiter-Glo® reagent to detect ATP wherein ATP in the assay drives the activity of a thermostable luciferase to create a luminescent signal which can then be measured and correlated with the number of viable cells. Briefly, for adherent cells, 1,000 to 5,000 cells/well were plated in 96-well plates (100 μl/well) and let to adhere for 24 hours before being treated with drug. For non-adherent cells, 1,000 to 10,000 cells/well were plated in 96-well plates (100 μl/well) and immediately treated with drug. Drug dilutions were prepared in DMSO at 1000 times the final concentration. These dilutions were then diluted 1/100 in growth media before being added to the cells (11 μl/well) to achieve the desired final concentration. After 48 h in a 37° C. tissue culture incubator, the plates were processed for the CellTiter-Glo®assay according to the manufacturer's instructions. Protocol for a 72 hour cell proliferation assay: The 72 hour assay was performed the same way as the 48 hour assay except for the following modifications: For adherent cells, 500 to 5,000 cells/well were plated in 96-well plates (90 μl/well cell growth media) and left to adhere for 24 hours before being treated with drug. For non-adherent cells, 1,000 to 10,000 cells/well were plated in 96-well plates (90 μl/well cell growth media) and immediately treated with drug. Data values presented represent the concentration of test compound required for a 50% reduction in growth. • LDH release. The Cytotoxicity Detection KitPLUS (LDH) assay (Roche Diagnostics, Manheim, Germany) measures the amount of LDH released in the media by dying cells; LDH catalyzes the conversion of lactate into pyruvate. The enzymatic reaction is coupled to a chemical reaction that uses a tetrazolium salt to form a formazan that is red and can be detected by its absorbance at 490 nm. This assay measures the amount of cell death after drug treatment. Cells were plated at 10,000 cells/well in 96-well plates (100 μl/well). Adherent cells were let to adhere for 24 hours before being treated with drug, whereas non-adherent cells were immediately treated with drug. Drug dilutions were prepared in DMSO at 1000 times the final concentration. These dilutions were then diluted 1/100 in growth media before being added to the cells (11 μl/well) to achieve the desired final concentration. After 48 h in a 37° C. tissue culture incubator, the plates were processed for the Cytotoxicity Detection KitPLUS (LDH) assay according to the manufacturer's instructions. The media only values were subtracted from all the data points before analysis. Data values presented correspond to the compound concentration wherein LDH output is at half maximal level. • Caspase-Glo® 3/7. The Caspase-Glo® 3/7 Assay (Promega Corporation) is a homogeneous luminescent assay that measures caspase-3/7 activities. The assay provides a proluminescent caspase-3/7 DEVD-aminoluciferin substrate and a thermostable luciferase in a reagent optimized for caspase-3/7 activity, luciferase activity and cell lysis. Adding the single Caspase-Glo® 3/7 Reagent results in cell lysis, followed by caspase cleavage of the substrate. This liberates free aminoluciferin, which is consumed by the luciferase, generating a luminescent signal. The signal is proportional to caspase-3/7 activity. Data values presented correspond to the compound concentration wherein caspase 3/7 activity is at half maximal level. […]

PC-3 = conditions: Prostate; for GI50: Homo sapiens
Description: as §1

786-0 = conditions: Renal; for GI50: Homo sapiens
Description: as §1

RPMI-8226 = conditions: Leukemia; for GI50: Homo sapiens
Description: as §1

KM12 = conditions: Colon; for GI50: Homo sapiens
Description: as §1

SK-OV-3 = conditions: Ovarian; for GI50: Homo sapiens
Description: as §1

ACHN = conditions: Renal; for GI50: Homo sapiens
Description: as §1

MCF7 = conditions: Breast; for GI50: Homo sapiens
Description: as §1

K-562 = conditions: for GI50: Homo sapiens, K562, Leukemia
Description: as §1

NCI-H522 = conditions: NSCL; for GI50: Homo sapiens
Description: as §1

SF-539 = conditions: CNS; for GI50: Homo sapiens
Description: as §1

NCI-H226 = conditions: NSCL; for GI50: Homo sapiens
Description: as §1

UACC-62 = conditions: Melanoma; for GI50: Homo sapiens
Description: as §1

DU-145 = conditions: Prostate; for GI50: Homo sapiens
Description: as §1

SNB-19 = conditions: CNS; for GI50: Homo sapiens
Description: as §1

BT-549 = conditions: Breast; for GI50: Homo sapiens
Description: as §1

[1] = GI50 in nM, read-out: Log(GI50) (converted)

In the case of `CC(C)(C)[C@H](c1nc(-c2cc(F)ccc2F)cn1Cc1ccccc1)N(CC[C@H](N)CF)C(=O)CO` [Compound IIa], the “Differential vs mean Log(GI50)” value (BT-474) is reported as −0.669, the GI50 (BT-474; [1]) is reported as 10 nM and the GI50 (BT-474; read-out: GI50) is reported as 10 nM. The GI50 (PC-3; [1]) was 10 nM, the GI50 (PC-3; read-out: GI50) was 10 nM and the “Differential vs mean Log(GI50)” value (PC-3) was −0.669. For the same compound, the GI50 (786-0; [1]) was 10 nM, the GI50 (786-0; read-out: GI50) was 10 nM and the “Differential vs mean Log(GI50)” value (786-0) was −0.669. For the same compound, the GI50 (RPMI-8226; [1]) was 0.351 nM, the GI50 (RPMI-8226; read-out: GI50) was 0.351 nM and the “Differential vs mean Log(GI50)” value (RPMI-8226) was 0.786. For the same compound, the “Differential vs mean Log(GI50)” value (KM12) was 0.705, the GI50 (KM12; [1]) was 0.423 nM and the GI50 (KM12; read-out: GI50) was 0.423 nM. For the same compound, the GI50 (SK-OV-3; [1]) was 0.421 nM, the GI50 (SK-OV-3; read-out: GI50) was 0.421 nM and the “Differential vs mean Log(GI50)” value (SK-OV-3) was 0.707. For the same compound, the GI50 (ACHN; [1]) was 10 nM, the GI50 (ACHN; read-out: GI50) was 10 nM and the “Differential vs mean Log(GI50)” value (ACHN) was −0.669. For the same compound, the “Differential vs mean Log(GI50)” value (MCF7) was −0.669, the GI50 (MCF7; [1]) was 10 nM and the GI50 (MCF7; read-out: GI50) was 10 nM. The GI50 (K-562; [1]) was 0.218 nM, the GI50 (K-562; read-out: GI50) was 0.218 nM and the “Differential vs mean Log(GI50)” value (K-562; Leukemia) was 0.993. For the same compound, the GI50 (NCI-H522; [1]) was 0.166 nM, the GI50 (NCI-H522; read-out: GI50) was 0.166 nM and the “Differential vs mean Log(GI50)” value (NCI-H522) was 1.111. The “Differential vs mean Log(GI50)” value (SF-539) was 0.743, the GI50 (SF-539; [1]) was 0.387 nM and the GI50 (SF-539; read-out: GI50) was 0.387 nM. The GI50 (NCI-H226; [1]) was 10 nM, the GI50 (NCI-H226; read-out: GI50) was 10 nM and the “Differential vs mean Log(GI50)” value (NCI-H226) was −0.669. The GI50 (UACC-62; [1]) was 10 nM, the GI50 (UACC-62; read-out: GI50) was 10 nM and the “Differential vs mean Log(GI50)” value (UACC-62) was −0.669. The GI50 (DU-145; [1]) was 0.435 nM, the GI50 (DU-145; read-out: GI50) was 0.435 nM and the “Differential vs mean Log(GI50)” value (DU-145) was 0.693. The “Differential vs mean Log(GI50)” value (SNB-19) was −0.669, the GI50 (SNB-19; [1]) was 10 nM and the GI50 (SNB-19; read-out: GI50) was 10 nM. The “Differential vs mean Log(GI50)” value (BT-549) was 0.423, the GI50 (BT-549; [1]) was 0.809 nM and the GI50 (BT-549; read-out: GI50) was 0.809 nM.
